PubChem BioAssay AID1648 (Sanford-Burnham Center for Chemical Genomics, 2009)
Calls of active or inactive are those of the source. The rule behind the calls is not given here.

Each compound was assayed against Serine/threonine-protein kinase mTOR (Homo sapiens) (UniProt P42345) (assay: mTOR FRB domain ligand binding – biophysical, NMR (AID 1648)). Settings: NMR binding to FRB domain, chemical shift.
Serine/threonine-protein kinase mTOR (Homo sapiens), sequence (P42345 2015-2114): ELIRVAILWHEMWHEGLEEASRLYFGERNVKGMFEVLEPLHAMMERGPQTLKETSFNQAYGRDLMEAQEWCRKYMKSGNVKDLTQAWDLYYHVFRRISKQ

Kd, inactive:
Nc1nc(=S)n2c(n1)oc1ccccc12 > 4 mM
Nc1cc(N)nc(SCc2cccnc2)n1 > 4 mM
CCc1cc(=O)[nH]c(SCC(=O)NCCOC)n1 > 4 mM
CCC(/C=C/[C@@H](C)[C@H]1CCC2C3CC=C4C[C@@H](O)CC[C@]4(C)C3CC[C@@]21C)C(C)C (stereo not given in full) > 4 mM
COc1cc(/C=C2\SC(=S)NC2=O)ccc1O > 4 mM
CCSc1nc(C)c(CC)c(C)c1C(N)=O > 4 mM
CSc1ccccc1NC(=O)c1cccnc1 > 4 mM
Cc1noc(C)c1C(=O)NCc1cccs1 > 4 mM
N/C(=N/S(=O)(=O)c1cccs1)c1ccccc1 > 4 mM
Nc1cc(F)nc(F)n1 > 4 mM
Cc1ccc(NC(=O)C2CCCNC2=O)nc1 (stereo not given) > 4 mM
Cc1ccc(CNc2ccc(O)cc2)cc1 > 4 mM
COC(=O)c1ccccc1N(C)S(C)(=O)=O > 4 mM
Cc1cc(NC(=O)c2cccc(N3C(=O)CCC3=O)c2)no1 > 4 mM
CCC(=O)NC(=S)Nc1ccc(N2CCOCC2)cc1 > 4 mM
